± gives the standard deviation of the averaged measurements.
Columns and labels:
Experiment in all cases: pIC50, kinobeads binding competition
Conditions in all cases: cell material: Jurkat lysate
[1] = target: T1, CDKL5 (UniProt O76039)
T1 sequence (whole entry): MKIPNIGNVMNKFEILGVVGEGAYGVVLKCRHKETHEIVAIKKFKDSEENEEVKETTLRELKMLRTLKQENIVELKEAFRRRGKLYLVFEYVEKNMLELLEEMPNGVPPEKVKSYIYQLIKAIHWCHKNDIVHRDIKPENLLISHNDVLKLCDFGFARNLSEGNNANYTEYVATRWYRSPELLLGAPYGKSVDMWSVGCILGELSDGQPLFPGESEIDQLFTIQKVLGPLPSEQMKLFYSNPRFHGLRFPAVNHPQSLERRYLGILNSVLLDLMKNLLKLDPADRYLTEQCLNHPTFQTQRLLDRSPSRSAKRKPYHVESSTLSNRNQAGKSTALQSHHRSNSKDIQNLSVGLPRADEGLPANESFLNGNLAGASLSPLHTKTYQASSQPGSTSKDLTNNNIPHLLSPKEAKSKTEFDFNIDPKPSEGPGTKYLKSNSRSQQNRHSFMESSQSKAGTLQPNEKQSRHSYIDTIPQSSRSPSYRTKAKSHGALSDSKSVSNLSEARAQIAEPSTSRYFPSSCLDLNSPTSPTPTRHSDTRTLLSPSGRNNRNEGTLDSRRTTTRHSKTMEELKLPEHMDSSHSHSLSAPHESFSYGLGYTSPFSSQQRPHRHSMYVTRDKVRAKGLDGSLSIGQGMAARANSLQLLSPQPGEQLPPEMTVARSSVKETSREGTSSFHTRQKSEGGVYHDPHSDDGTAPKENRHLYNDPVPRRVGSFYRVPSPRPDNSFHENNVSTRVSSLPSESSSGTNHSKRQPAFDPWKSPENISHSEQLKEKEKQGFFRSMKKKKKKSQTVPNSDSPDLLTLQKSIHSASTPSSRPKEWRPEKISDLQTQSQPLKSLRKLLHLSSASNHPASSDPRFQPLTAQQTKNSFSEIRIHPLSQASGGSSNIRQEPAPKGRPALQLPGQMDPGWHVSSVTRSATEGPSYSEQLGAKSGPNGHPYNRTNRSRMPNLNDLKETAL

[2] = target: ACVR2B (UniProt Q13705)
Chain of ACVR2B (Q13705 whole entry): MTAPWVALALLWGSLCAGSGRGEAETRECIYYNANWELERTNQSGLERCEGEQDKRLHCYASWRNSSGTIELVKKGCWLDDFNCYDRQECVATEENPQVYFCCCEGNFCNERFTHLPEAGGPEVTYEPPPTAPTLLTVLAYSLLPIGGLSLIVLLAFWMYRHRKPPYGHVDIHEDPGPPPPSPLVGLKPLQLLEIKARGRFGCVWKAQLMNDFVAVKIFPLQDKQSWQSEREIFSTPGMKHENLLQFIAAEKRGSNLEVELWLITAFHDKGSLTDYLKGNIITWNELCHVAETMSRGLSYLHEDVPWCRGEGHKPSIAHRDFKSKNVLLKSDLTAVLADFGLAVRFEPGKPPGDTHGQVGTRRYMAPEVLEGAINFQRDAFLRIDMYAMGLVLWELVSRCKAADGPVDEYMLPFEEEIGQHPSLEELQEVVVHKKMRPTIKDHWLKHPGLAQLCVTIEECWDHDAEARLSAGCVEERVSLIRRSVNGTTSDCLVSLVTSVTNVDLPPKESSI

[3] = target: T2, NLK (UniProt Q9UBE8)
T2 sequence (whole entry): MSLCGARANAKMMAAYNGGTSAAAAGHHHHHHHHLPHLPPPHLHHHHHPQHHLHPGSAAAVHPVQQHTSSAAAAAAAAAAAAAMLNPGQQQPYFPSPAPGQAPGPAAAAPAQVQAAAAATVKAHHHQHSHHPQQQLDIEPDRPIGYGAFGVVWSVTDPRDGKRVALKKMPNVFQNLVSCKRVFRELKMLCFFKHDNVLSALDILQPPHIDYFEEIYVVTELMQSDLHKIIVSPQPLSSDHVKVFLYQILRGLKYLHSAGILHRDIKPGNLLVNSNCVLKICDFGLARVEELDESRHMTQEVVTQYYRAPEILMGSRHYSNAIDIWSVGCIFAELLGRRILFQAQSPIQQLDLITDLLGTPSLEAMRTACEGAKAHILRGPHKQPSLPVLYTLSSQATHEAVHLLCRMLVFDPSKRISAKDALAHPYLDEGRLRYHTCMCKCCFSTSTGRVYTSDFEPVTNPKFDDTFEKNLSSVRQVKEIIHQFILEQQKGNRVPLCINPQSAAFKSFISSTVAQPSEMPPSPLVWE

[4] = target: SRPK1 (UniProt Q96SB4)
Chain of SRPK1 (Q96SB4 whole entry): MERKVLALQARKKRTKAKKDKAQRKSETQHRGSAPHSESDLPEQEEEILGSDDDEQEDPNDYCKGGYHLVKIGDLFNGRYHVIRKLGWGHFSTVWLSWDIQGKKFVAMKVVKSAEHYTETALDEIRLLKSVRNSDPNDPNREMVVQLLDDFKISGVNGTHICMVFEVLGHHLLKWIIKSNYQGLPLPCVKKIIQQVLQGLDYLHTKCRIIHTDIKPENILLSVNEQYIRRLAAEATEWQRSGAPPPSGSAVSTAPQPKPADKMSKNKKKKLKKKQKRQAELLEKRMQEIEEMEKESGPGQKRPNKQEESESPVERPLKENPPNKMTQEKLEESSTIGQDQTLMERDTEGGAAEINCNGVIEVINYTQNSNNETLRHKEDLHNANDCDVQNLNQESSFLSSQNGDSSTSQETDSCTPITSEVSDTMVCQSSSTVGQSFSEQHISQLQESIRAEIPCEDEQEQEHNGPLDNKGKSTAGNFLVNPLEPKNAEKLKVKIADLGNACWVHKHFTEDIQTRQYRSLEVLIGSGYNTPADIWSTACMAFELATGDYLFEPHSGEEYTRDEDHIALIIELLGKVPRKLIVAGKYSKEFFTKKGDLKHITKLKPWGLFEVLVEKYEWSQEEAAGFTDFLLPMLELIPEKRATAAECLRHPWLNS

[5] = target: UniProt Q9HCP0
[6] = target: UniProt P68400
Chain of UniProt P68400 (P68400 whole entry, looked up): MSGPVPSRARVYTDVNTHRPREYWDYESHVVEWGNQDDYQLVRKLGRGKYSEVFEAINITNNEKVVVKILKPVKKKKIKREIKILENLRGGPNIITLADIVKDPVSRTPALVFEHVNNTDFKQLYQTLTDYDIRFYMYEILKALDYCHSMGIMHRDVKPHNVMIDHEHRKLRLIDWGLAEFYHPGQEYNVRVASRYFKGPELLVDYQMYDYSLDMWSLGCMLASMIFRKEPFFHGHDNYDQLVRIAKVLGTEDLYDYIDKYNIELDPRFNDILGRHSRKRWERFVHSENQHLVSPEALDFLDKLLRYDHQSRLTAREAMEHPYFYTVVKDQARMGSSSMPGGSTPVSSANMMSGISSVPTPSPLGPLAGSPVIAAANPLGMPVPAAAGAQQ

[7] = target: BMPR1A (UniProt P36894)
Chain of BMPR1A (P36894 whole entry): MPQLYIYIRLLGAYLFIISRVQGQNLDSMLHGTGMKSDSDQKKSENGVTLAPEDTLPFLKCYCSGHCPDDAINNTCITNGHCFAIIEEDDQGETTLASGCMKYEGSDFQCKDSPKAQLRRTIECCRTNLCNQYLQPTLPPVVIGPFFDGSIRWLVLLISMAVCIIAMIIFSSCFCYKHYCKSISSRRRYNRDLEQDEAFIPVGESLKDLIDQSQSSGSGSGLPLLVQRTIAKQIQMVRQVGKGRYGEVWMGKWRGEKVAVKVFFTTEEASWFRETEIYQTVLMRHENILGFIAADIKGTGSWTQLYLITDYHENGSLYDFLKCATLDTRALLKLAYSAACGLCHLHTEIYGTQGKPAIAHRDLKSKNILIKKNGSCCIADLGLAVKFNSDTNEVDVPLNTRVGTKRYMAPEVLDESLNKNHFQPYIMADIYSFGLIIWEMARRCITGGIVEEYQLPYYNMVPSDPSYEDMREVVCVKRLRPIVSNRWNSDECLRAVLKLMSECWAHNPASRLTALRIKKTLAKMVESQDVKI

[8] = target: IRAK1 (UniProt P51617)
[9] = target: UniProt Q9Y2I7
Chain of UniProt Q9Y2I7 (Q9Y2I7 whole entry): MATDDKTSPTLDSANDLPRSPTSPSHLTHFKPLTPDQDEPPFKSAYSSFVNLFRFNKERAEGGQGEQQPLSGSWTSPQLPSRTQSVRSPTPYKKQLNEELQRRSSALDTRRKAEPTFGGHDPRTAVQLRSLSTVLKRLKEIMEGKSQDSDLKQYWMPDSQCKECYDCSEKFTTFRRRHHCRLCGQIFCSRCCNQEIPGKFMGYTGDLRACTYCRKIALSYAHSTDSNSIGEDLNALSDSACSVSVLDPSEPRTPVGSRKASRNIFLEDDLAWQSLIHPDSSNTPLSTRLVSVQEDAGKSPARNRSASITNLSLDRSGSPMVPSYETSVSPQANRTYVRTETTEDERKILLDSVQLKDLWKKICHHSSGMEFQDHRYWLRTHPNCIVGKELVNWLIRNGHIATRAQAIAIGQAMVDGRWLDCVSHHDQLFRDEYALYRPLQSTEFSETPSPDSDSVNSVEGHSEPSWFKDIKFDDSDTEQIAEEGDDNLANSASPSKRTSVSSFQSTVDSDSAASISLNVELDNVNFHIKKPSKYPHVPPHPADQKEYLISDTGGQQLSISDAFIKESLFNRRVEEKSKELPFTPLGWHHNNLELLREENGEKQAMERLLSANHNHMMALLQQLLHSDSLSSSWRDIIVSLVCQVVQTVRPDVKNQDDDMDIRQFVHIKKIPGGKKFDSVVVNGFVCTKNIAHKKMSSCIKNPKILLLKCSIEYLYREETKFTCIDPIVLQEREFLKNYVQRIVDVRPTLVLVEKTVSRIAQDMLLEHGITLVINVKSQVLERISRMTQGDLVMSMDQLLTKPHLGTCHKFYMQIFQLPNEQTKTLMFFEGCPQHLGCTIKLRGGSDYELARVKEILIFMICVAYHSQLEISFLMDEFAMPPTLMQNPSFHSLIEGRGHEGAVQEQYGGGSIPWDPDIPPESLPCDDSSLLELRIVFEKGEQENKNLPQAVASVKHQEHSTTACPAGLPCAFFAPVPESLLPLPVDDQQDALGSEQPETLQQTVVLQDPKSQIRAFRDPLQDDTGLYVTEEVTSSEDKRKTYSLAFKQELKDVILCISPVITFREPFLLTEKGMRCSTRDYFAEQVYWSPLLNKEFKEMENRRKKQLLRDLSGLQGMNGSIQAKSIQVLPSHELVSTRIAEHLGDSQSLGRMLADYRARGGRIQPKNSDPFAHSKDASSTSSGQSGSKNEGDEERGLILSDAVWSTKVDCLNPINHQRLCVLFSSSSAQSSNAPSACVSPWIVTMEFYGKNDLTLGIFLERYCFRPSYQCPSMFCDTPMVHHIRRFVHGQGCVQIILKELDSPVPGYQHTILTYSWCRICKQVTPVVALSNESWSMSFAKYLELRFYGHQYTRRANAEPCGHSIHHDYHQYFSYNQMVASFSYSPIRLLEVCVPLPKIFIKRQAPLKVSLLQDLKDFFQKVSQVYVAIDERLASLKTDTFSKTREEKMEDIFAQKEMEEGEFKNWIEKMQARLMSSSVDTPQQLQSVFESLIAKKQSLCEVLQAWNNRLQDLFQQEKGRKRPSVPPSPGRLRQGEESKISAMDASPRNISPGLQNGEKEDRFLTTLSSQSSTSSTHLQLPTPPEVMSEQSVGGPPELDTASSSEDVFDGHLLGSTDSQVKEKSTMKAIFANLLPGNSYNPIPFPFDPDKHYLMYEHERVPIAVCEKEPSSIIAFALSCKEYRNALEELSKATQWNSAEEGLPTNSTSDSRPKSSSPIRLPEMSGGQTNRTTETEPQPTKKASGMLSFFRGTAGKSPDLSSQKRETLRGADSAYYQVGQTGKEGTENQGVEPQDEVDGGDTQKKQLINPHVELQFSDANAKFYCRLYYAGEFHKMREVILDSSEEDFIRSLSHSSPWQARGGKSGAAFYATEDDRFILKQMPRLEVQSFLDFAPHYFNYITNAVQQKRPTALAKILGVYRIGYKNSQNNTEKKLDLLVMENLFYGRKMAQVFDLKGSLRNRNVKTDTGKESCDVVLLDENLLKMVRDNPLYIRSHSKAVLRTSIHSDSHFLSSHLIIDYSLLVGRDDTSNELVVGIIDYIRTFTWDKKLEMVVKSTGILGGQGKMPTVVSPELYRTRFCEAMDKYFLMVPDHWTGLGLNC

[10] = target: CAMKK1 (UniProt Q8N5S9)
[11] = target: LIMK2 (UniProt P53671)
Chain of LIMK2 (P53671 whole entry, looked up): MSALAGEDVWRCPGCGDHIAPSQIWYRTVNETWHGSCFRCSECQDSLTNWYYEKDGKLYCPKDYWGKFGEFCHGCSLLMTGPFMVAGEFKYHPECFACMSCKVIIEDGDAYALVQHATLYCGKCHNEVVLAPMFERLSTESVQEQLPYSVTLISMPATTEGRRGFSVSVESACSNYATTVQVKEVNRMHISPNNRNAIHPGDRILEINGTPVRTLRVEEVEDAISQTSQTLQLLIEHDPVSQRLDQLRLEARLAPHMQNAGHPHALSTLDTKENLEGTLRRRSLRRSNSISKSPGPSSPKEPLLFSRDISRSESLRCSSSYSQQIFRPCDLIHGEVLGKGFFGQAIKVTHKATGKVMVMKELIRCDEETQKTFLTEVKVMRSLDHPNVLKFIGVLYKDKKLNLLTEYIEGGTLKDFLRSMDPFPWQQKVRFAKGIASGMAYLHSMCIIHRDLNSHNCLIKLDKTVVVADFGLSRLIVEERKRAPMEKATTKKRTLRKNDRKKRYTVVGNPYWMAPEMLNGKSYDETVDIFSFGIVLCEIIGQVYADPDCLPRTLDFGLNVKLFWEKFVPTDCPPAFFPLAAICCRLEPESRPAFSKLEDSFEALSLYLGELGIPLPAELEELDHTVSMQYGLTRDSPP

- pIC50 [1]: 6.485 ± 0.035
- pIC50 [2]: < 4.52
- pIC50 [3]: < 4.52
- pIC50 [4]: < 4.52
- pIC50 [5]: < 4.52
- pIC50 [6]: < 4.52
- pIC50 [7]: < 4.52
- pIC50 [8]: < 4.52
- pIC50 [9]: < 4.52
- pIC50 [10]: 4.6
- pIC50 [11]: < 4.52
SMILES: CCc1cnn2c(NCc3ccc[n+]([O-])c3)cc(N3CCCC[C@H]3CCO)nc12 [dinaciclib]
